Laboratory results taken from patent US20240368150A1 (Hoffmann-La Roche Inc., priority 2021, published 2024).
Like-named read-outs stand apart in the source and are kept apart here.

How the values were obtained:
primary human T-cells [1] = system: primary human T-cells
primary human T-cells [2] = test: Proliferation assay after 5 days (CellTiter-Glo, CD3 stimulation; PBS counter screen); type: cell-based; conditions: CD3 stimulation; for Emax: read-out: Emax proliferation (% activation); for EC50: primary human T-cells, CellTiter-Glo after 5 days, EC50 of fitted sigmoidal curve, read-out: Tcell Proliferation CD3 EC50
In short: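 Read-out: CellTiter-Glo 2.0 luminescence (ATP ∝ cell number) at day 5 after compound addition. Compounds activating unstimulated cells or reducing viability flagged.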

[3] = Homo sapiens, T-cell, 120 h, 5 days, normalized to reference compound A1 as stimulator control = 100%, DMSO neutral control

| EC50 (primary human T-cells [1]) [µM] | Compound | Emax (primary human T-cells [2]; [3]) [%] | EC50 (primary human T-cells [2]; Homo sapiens, T-cell, 120 h) [µM] | Emax proliferation (% activation) (primary human T-cells [2]; 5 days, normalized to reference compound A1 as stimulator control = 100%, DMSO neutral control) | EC50 (primary human T-cells [2]) [µM] |
| --- | --- | --- | --- | --- | --- |
| 2.69 | CCCC(=O)N[C@H]1CS(=O)(=O)c2cc(F)c(-c3nnc(C(C)(C)C)o3)cc2N(Cc2ccc(Cl)cc2)C1=O [Example 261, N-[(3R)-7-(5-tert-butyl-1,3,4-oxadiazol-2-yl)-5-[(4-chlorophenyl)methyl]-8-fluoro-1,1,4-trioxo-2,3-dihydro-1λ^6,5-benzothiazepin-3-yl]butanamide] | 115 | 0.428 | – | – |
| 1.4 | CC[C@H](NC)C(=O)N[C@H]1CS(=O)(=O)c2cc(F)c(-c3nnc(C(C)(C)C)o3)cc2N(Cc2ccc(Cl)cc2)C1=O [Example 263, (2S)-N-[(3R)-7-(5-tert-butyl-1,3,4-oxadiazol-2-yl)-5-[(4-chlorophenyl)methyl]-8-fluoro-1,1,4-trioxo-2,3-dihydro-1λ^6,5-benzothiazepin-3-yl]-2-(methylamino)butanamide] | – | – | 185 | < 0.162 |
| 8.1 | CC(C)(C)c1nnc(-c2cc3c(cc2F)S(=O)(=O)C[C@H](NC(=O)CCN)C(=O)N3Cc2ccc(Cl)cc2)o1 [Example 264, 3-amino-N-[(3R)-7-(5-tert-butyl-1,3,4-oxadiazol-2-yl)-5-[(4-chlorophenyl)methyl]-8-fluoro-1,1,4-trioxo-2,3-dihydro-1λ^6,5-benzothiazepin-3-yl]propanamide] | 106 | 2.7 | – | – |
| > 20 | CNCC(=O)N[C@H]1CS(=O)(=O)c2cc(F)c(-c3nnc(C(C)(C)C)o3)cc2N(Cc2ccc(Cl)cc2)C1=O [Example 265, N-[(3R)-7-(5-tert-butyl-1,3,4-oxadiazol-2-yl)-5-[(4-chlorophenyl)methyl]-8-fluoro-1,1,4-trioxo-2,3-dihydro-1λ^6,5-benzothiazepin-3-yl]-2-(methylamino)acetamide] | 143 | 0.884 | – | – |
| 5.44 | CC(C)(C)c1nnc(-c2cc3c(cc2F)S(=O)(=O)C[C@H](NC(=O)CCCN)C(=O)N3Cc2ccc(Cl)cc2)o1 [Example 267, 4-amino-N-[(3R)-7-(5-tert-butyl-1,3,4-oxadiazol-2-yl)-5-[(4-chlorophenyl)methyl]-8-fluoro-1,1,4-trioxo-2,3-dihydro-1λ^6,5-benzothiazepin-3-yl]butanamide] | 74 | 3.07 | – | – |
| 7.83 | CN[C@@H](C)C(=O)N[C@H]1CS(=O)(=O)c2cc(F)c(-c3nnc(C(C)(C)C)o3)cc2N(Cc2ccc(Cl)cc2)C1=O [Example 268, (2S)—N-[(3R)-7-(5-tert-butyl-1,3,4-oxadiazol-2-yl)-5-[(4-chlorophenyl)methyl]-8-fluoro-1,1,4-trioxo-2,3-dihydro-1λ^6,5-benzothiazepin-3-yl]-2-(methylamino)propanamide] | 95 | 0.249 | – | – |
| > 10 | CN[C@@H](CO)C(=O)N[C@H]1CS(=O)(=O)c2cc(F)c(-c3nnc(C(C)(C)C)o3)cc2N(Cc2ccc(Cl)cc2)C1=O [Example 269, (2S)-3-hydroxy-2-(methylamino)-N-[(3R)-7-(5-tert-butyl-1,3,4-oxadiazol-2-yl)-5-[(4-chlorophenyl)methyl]-8-fluoro-1,1,4-trioxo-2,3-dihydro-1λ^6,5-benzothiazepin-3-yl]propanamide] | 67 | 5.84 | – | – |
| 4.81 | CC(C)(C)c1nnc(-c2cc3c(cc2Br)S(=O)(=O)C[C@H](N)C(=O)N3Cc2ccc(Cl)cc2)o1 [Example 271, (3R)-3-amino-8-bromo-7-(5-tert-butyl-1,3,4-oxadiazol-2-yl)-5-[(4-chlorophenyl)methyl]-1,1-dioxo-2,3-dihydro-1λ^6,5-benzothiazepin-4-one] | 91 | 3.19 | – | – |
| 7.21 | CC(C)(C)c1nnc(-c2cc3c(cc2O)S(=O)(=O)C[C@H](N)C(=O)N3Cc2ccc(Cl)cc2)o1 [Example 273, (3R)-3-amino-7-(5-tert-butyl-1,3,4-oxadiazol-2-yl)-5-[(4-chlorophenyl)methyl]-8-hydroxy-1,1-dioxo-2,3-dihydro-1λ^6,5-benzothiazepin-4-one] | 61 | 3.19 | – | – |
| > 20 | CN(C)c1cc2c(cc1-c1nnc(C(C)(C)C)o1)N(Cc1ccc(Cl)cc1)C(=O)[C@@H](N)CS2(=O)=O [Example 274, (3R)-3-amino-7-(5-tert-butyl-1,3,4-oxadiazol-2-yl)-5-[(4-chlorophenyl)methyl]-8-(dimethylamino)-1,1-dioxo-2,3-dihydro-1λ^6,5-benzothiazepin-4-one] | 10 | > 20 | – | – |
| 9.15 | CC(C)(C)c1nnc(-c2cc3c(cc2N)S(=O)(=O)C[C@H](N)C(=O)N3Cc2ccc(Cl)cc2)o1 [Example 275, (3R)-3,8-diamino-7-(5-tert-butyl-1,3,4-oxadiazol-2-yl)-5-[(4-chlorophenyl)methyl]-1,1-dioxo-2,3-dihydro-1λ^6,5-benzothiazepin-4-one] | 108 | 5.49 | – | – |
| 1.06 | Cc1cc2c(cc1-c1nnc(C(C)(C)C#N)o1)N(Cc1ccc(Cl)cc1)C(=O)[C@@H](N)CS2(=O)=O [Example 276, 2-[5-[(3R)-3-amino-5-[(4-chlorophenyl)methyl]-8-methyl-1,1,4-trioxo-2,3-dihydro-1λ^6,5-benzothiazepin-7-yl]-1,3,4-oxadiazol-2-yl]-2-methyl-propanenitrile] | 96 | 2.73 | – | – |
| 6.94 | Cc1cc2c(cc1-c1nnc(C(C)C#N)o1)N(Cc1ccc(Cl)cc1)C(=O)[C@@H](N)CS2(=O)=O (stereo partly drawn) [Example 277, 2-[5-[(3R)-3-amino-5-[(4-chlorophenyl)methyl]-8-methyl-1,1,4-trioxo-2,3-dihydro-1λ^6,5-benzothiazepin-7-yl]-1,3,4-oxadiazol-2-yl]propanenitrile] | 59 | 8.22 | – | – |
| 0.47 | CCn1cc(-c2cc3c(cc2F)S(=O)(=O)C[C@H](N)C(=O)N3Cc2ccc(Cl)cc2)cn1 [Example 279] | 90 | 5.34 | – | – |
| 0.853 | CCn1ccc(-c2cc3c(cc2F)S(=O)(=O)C[C@H](N)C(=O)N3Cc2ccc(Cl)cc2)n1 [Example 280, (3R)-3-amino-5-[(4-chlorophenyl)methyl]-7-(1-ethylpyrazol-3-yl)-8-fluoro-1,1-dioxo-2,3-dihydro-1λ^6,5-benzothiazepin-4-one] | 52 | 19.5 | – | – |
| > 10 | CN1CC(n2cc(-c3cc4c(cc3F)S(=O)(=O)C[C@H](N)C(=O)N4Cc3ccc(Cl)cc3)cn2)CC(F)(F)C1 (stereo partly drawn) [Example 281, (3R)-3-amino-5-[(4-chlorophenyl)methyl]-7-[1-(5,5-difluoro-1-methyl-3-piperidyl)pyrazol-4-yl]-8-fluoro-1,1-dioxo-2,3-dihydro-1λ^6,5-benzothiazepin-4-one] | 89 | 1.04 | – | – |
| 1.01 | CC(C)(C)c1ccn(-c2cc3c(cc2F)S(=O)(=O)C[C@H](N)C(=O)N3Cc2ccc(Cl)cc2)n1 [Example 283, (3R)-3-amino-7-(3-tert-butylpyrazol-1-yl)-5-[(4-chlorophenyl)methyl]-8-fluoro-1,1-dioxo-2,3-dihydro-1λ^6,5-benzothiazepin-4-one] | 67 | 5.49 | – | – |
| > 20 | CCc1cnn(-c2cc3c(cc2F)S(=O)(=O)C[C@H](N)C(=O)N3Cc2ccc(Cl)cc2)c1 [Example 284, (3R)-3-amino-5-[(4-chlorophenyl)methyl]-7-(4-ethylpyrazol-1-yl)-8-fluoro-1,1-dioxo-2,3-dihydro-1λ^6,5-benzothiazepin-4-one] | 30 | 5.49 | – | – |
| 9.37 | CCn1cnc(-c2cc3c(cc2F)S(=O)(=O)C[C@H](N)C(=O)N3Cc2ccc(Cl)cc2)n1 [Example 285, (3R)-3-amino-5-[(4-chlorophenyl)methyl]-7-(1-ethyl-1,2,4-triazol-3-yl)-8-fluoro-1,1-dioxo-2,3-dihydro-1λ^6,5-benzothiazepin-4-one] | 60 | 5.49 | – | – |
| 19.3 | CC(C)(C)n1ccc(-c2cc3c(cc2F)S(=O)(=O)C[C@H](N)C(=O)N3Cc2ccc(Cl)cc2)n1 [Example 287, (3R)-3-amino-7-(1-tert-butylpyrazol-3-yl)-5-[(4-chlorophenyl)methyl]-8-fluoro-1,1-dioxo-2,3-dihydro-1λ^6,5-benzothiazepin-4-one] | 66 | 2.21 | – | – |
| > 10 | N[C@H]1CS(=O)(=O)c2cc(F)c(-c3nc4n(n3)CCNC4C(F)(F)F)cc2N(Cc2ccc(OC(F)(F)F)cc2)C1=O (stereo partly drawn) [Example 288, (3R)-3-amino-8-fluoro-1,1-dioxo-5-[[4-(trifluoromethoxy)phenyl]methyl]-7-[8-(trifluoromethyl)-5,6,7,8-tetrahydro-[1,2,4]triazolo[1,5-a]pyrazin-2-yl]-2,3-dihydro-1λ^6,5-benzothiazepin-4-one] | 71 | 4.31 | – | – |
| 1.7 | N[C@H]1CS(=O)(=O)c2cc(F)c(-c3noc(C(=O)NCC(F)(F)F)n3)cc2N(Cc2ccc(Cl)cc2)C1=O [Example 291, 3-[(3R)-3-amino-5-[(4-chlorophenyl)methyl]-8-fluoro-1,1,4-trioxo-2,3-dihydro-1λ^6,5-benzothiazepin-7-yl]-N-(2,2,2-trifluoroethyl)-1,2,4-oxadiazole-5-carboxamide] | 104 | 0.446 | – | – |
